# Measured values published in patent US11357819B2, “Cytocidal agent” (FUJITA ACADEMY, priority 2017, dated 2022).
# “Also recorded” adds a separate entry of the source. Where two headings read alike, the source gives them in different places. Where a SMILES comes first, the peptide text is derived from it. [ ]: non-standard residue; d: D form.
# Legend:
# [1] = in vivo
# Protocol: A weight of each mouse was measured before being died of bleeding.
# As a result, in the control group into which a peptide was not administered (n=8), the number of dead individuals after 24 days from transplanting the A431-CNGB3-myc cells into the peritoneal cavity was 1, and the alive rate was […]. With respect to this, in a group into which the IF7 (RR)−(K+H) peptide was administered such that the IF7 (RR)−(K+H) peptide was 10 μg/body/day or 50 μg/body (n=6), the alive rate was 100%. In addition, at the time of the end of the test, the spread of cancer cells (A431-CNGB3-myc cells) in the peritoneal cavity of all mice was examined.
# A431-CNGB3-myc cells = assay: Cytocidal activity by ATP amount (CellTiter-Glo luminescence) in peptide-treated A431-CNGB3-myc cells; type: cell-based, human; details: for cytocidal activity (relative ATP amount %): Example 6, A431-CNGB3-myc cells, 2.34 to 300.0 μM, FIG. 10
# Protocol: A transformed cell (A431-CNGB3-myc cell) obtained by introducing a gene encoding human CNGB3, in which an myc tag was fused in a C-terminal, into an A431 cell (human epithelial-like cell cancer-derived cell strain) and forcibly expressing thereof was prepared as an endometriosis model cell.
# Culturing of the A431-CNGB3-myc cell was performed at 37° C. in a 5 volume % carbon dioxide environment using a medium in which 10% of inactivated FBS (bovine fetal serum, manufactured by Corning Corporation) and 1% of penicillin-streptomycin (manufactured by Invitrogen Corporation) were contained in a DMEM High Glucose medium (manufactured by GIBCO Corporation), as a culture medium. Passage was performed every two or three days.
# The cytocidal activity of each peptide was evaluated by measuring an ATP amount in A431-CNGB3-myc cells treated with each peptide using CellTiter-Glo (registered trademark) assay kit (manufactured by Promega).
# Specifically, first, A431-CNGB3-myc cells after 2 passages were disseminated into a 96-well plate (manufactured by Corning/Costar, Lot No. 00515003) so as to be 1×10^4 cells/well by preparing the concentration of the cells. After culturing for 2 days after the dissemination, each peptide was added to each well such that a final concentration was […], 75, or 150 μM, respectively, and cultured for 24 hours. Thereafter, the culture supernatant was removed from each well, and CellTiter-Glo buffer was added to the remaining cells, and after homogenization, the supernatant was recovered by centrifugation and used as a lysate. A double quantity of PBS and a 2×CellTiterGlo Reagent of the equivalent amount of the lysate were added to the lysate and stirred to obtain a reaction solution, and the reaction solution was stood at room temperature for 10 minutes. The luminescence intensity (Luminescence) (RLU: RELATIVE LIGHT UNITS) of the reaction solution after standing at room temperature was measured using a Synergy H1 hybrid multi-mode microplate reader (manufactured by BioTek Corporation). The luminescence intensity of the reaction solution is an indicator of the amount of ATP. It is shown that the smaller the luminescence intensity of the reaction solution is, the amount of ATP is small, and the cytocidal activity of the administered peptide is strong. All trials were measured in triplicate and the average was evaluated as the cytocidal activity at the concentration of each peptide.
# The final concentration of each peptide added to the A431-CNGB3-myc cells disseminated into the 96-well plate was set to be 2.34, 4.69, 9.38, 18.8, 37.5, 75, or 150 μM, and the cytocidal activity of each peptide was evaluated in the same manner as that of Reference Example 1, except that the culture time after addition of the peptide was set to 20 hours. In the evaluation of the cytocidal activity against the A431-CNGB3-myc cells of each peptide, the measurement result of the fluorescence intensity (RLU) of each reaction solution is shown in FIG. 2. In the figure, “1” to “16” show the result of the reaction solution to which peptides 1 to 16 of Table 2 were added, respectively.
# The cytocidal activity of each peptide was evaluated in the same manner as that of Example 1, except that the final concentration of each peptide added to each cell disseminated into the 96-well plate was set to be 0 (peptide non-added), 2.34, 4.69, 9.38, 18.8, 37.5, 75.0, 150.0, or 300.0 μM. A relative fluorescence intensity (%) of each reaction solution in a case Where the fluorescence intensity (RLU) of the reaction solution to which no peptide was added was set to 100% was calculated as a relative ATP amount (%). […]
# [2] = system: Ishikawa, SNG-II, Hec-1A and RL95-2 cells (cell strains derived from a uterine cancer cell); assay: Cytocidal activity by relative ATP amount (CellTiter-Glo) in cell strains derived from uterine cancer cells; type: cell-based, human; details: Example 6, 2.34 to 300.0 μM, 20 hours, FIGS. 11 to 14
# Protocol: As the cancer-derived cell strain, an Ishikawa cell derived from human endometrium gland cancer, an SNG-II cell derived from human endometrium cancer, an Hec-1A cell derived from human uterine body cancer, and a RL95-2 cell derived from human endometrium cancer were used. The cells were cultured in the same manner as the A431-CNG133-myc cells.
# The cytocidal activity of each peptide was evaluated in the same manner as that of Example 1, except that the final concentration of each peptide added to each cell disseminated into the 96-well plate was set to be 0 (peptide non-added), 2.34, 4.69, 9.38, 18.8, 37.5, 75.0, 150.0, or 300.0 μM. A relative fluorescence intensity (%) of each reaction solution in a case Where the fluorescence intensity (RLU) of the reaction solution to which no peptide was added was set to 100% was calculated as a relative ATP amount (%). In the figure, the “14D−Z13+5D−Z13” represents a relative ATP amount of the reaction solution to which both of a peptide A2-1 and a peptide A2-2 were added, the “14D−Z13” represents a relative ATP amount of the reaction solution to which only the peptide A2-1 was added, the “5D−Z13” represents a relative ATP amount of the reaction solution to Which only the peptide A2-2 was added, and the “14D−5D−Z13” represents a relative ATP amount (%) of the reaction solution to which only the peptide A2 was added, respectively.
# [3] = Example 1, peptide 2.34 to 150 μM, 20 hours, FIG. 2
# [4] = Reference Example 1, peptide 35.5, 75 or 150 μM, 24 hours, FIG. 1
molecule,measurement,setting,value
"CC(C)C[C@@H](NC(=O)[C@H](N)CCCCN)C(=O)N[C@H](C)C(=O)N[C@H](CCCCN)C(=O)N[C@H](CC(C)C)C(=O)N[C@H](C)C(=O)N[C@H](CCCCN)C(=O)N[C@H](CCCCN)C(=O)N[C@H](CC(C)C)C(=O)N[C@H](C)C(=O)N[C@H](CCCCN)C(=O)N[C@H](CC(C)C)C(=O)N[C@H](C)C(=O)N[C@H](CCCCN)C(=O)N[C@H](Cc1c[nH]cn1)C(=O)N[C@H](CC(C)C)C(=O)N[C@H](C)C(=O)N[C@H](Cc1c[nH]cn1)C(=O)N[C@H](CC(C)C)C(=O)N[C@H](C(=O)N[C@@H](CCCNC(=N)N)C(=O)N[C@@H](CCCNC(=N)N)C(=O)N[C@@H](C)C(=O)N[C@@H](CC(=O)O)C(=O)N[C@@H](CC(N)=O)C(=O)N[C@@H](CCCNC(=N)N)C(=O)N1CCC[C@H]1C(=O)NCC(=O)O)C(C)C [Peptide A2, KLAKLAK-KLAKLAK-HLAHL-VRRADNRPG] (H-[dK][dL][dA][dK][dL][dA][dK][dK][dL][dA][dK][dL][dA][dK][dH][dL][dA][dH][dL]VRRADNRPG-OH)",weight of each mouse,[1]; ip,no particular change
"CC[C@H](C)[C@H](N)C(=O)N[C@@H](Cc1ccccc1)C(=O)N[C@@H](CC(C)C)C(=O)N[C@@H](CC(C)C)C(=O)N[C@@H](Cc1c[nH]c2ccccc12)C(=O)N[C@@H](CCC(N)=O)C(=O)N[C@@H](CCCNC(=N)N)C(=O)N[C@@H](CCCNC(=N)N)C(=O)N[C@@H](CCCNC(=N)N)C(=O)N[C@H](CCCCN)C(=O)N[C@H](CC(C)C)C(=O)N[C@H](C)C(=O)N[C@H](CCCCN)C(=O)N[C@H](CC(C)C)C(=O)N[C@H](C)C(=O)N[C@H](CCCCN)C(=O)N[C@H](CCCCN)C(=O)N[C@H](CC(C)C)C(=O)N[C@H](C)C(=O)N[C@H](CCCCN)C(=O)N[C@H](CC(C)C)C(=O)N[C@H](C)C(=O)N[C@H](CCCCN)C(=O)N[C@H](Cc1c[nH]cn1)C(=O)N[C@H](CC(C)C)C(=O)N[C@H](C)C(=O)N[C@H](Cc1c[nH]cn1)C(=O)N[C@H](CC(C)C)C(=O)O [IF7 (RR)−(K+H) peptide, IFLLWQR-RR-KLAKLAK-KLAKLAK-HLAHL] (H-IFLLWQRRR[dK][dL][dA][dK][dL][dA][dK][dK][dL][dA][dK][dL][dA][dK][dH][dL][dA][dH][dL]-OH)",weight of each mouse,[1],no particular change
KLAKLAK-KLAKLAK-HLAHLAH-VRRADNRPG (KLAKLAKKLAKLAKHLAHLAHVRRADNRPG; KLAK(14)-HLAH(7)-Z13 peptide) [Peptide 8],"cytocidal activity, comparison between peptides",A431-CNGB3-myc cells; [3],stronger cytocidal activity than the longest peptide 1; also recorded: strongest cytocidal activity
KLAKLAK-KLAKLAK-HLAHLAH-HLAHLAH-VRRAENRPG (KLAKLAKKLAKLAKHLAHLAHHLAHLAHVRRAENRPG; KLAK(14)-HLAH(14)-D5E peptide) [Peptide D5E],"cytocidal activity (luminescence intensity RLU, indicator of ATP amount)",A431-CNGB3-myc cells; [4],concentration-dependent cytocidal activity
HLAHLAH-HLAHLAH-KLAKLAK-VRRADNRPG (HLAHLAHHLAHLAHKLAKLAKVRRADNRPG; HLAH(14)-KLAK(13)-Z13 peptide) [Peptide 16],"cytocidal activity, comparison between peptides",A431-CNGB3-myc cells; [3],stronger cytocidal activity than the longest peptide 9
HLAHL-VRRADNRPG (HLAHLVRRADNRPG; KLAK(14)-HLAH(5)-Z13 peptide) [Peptide A2-2],cytocidal activity (relative ATP amount %),A431-CNGB3-myc cells; 20 hours,hardly observed or significantly weak
same,cytocidal activity (relative ATP amount %),[2],hardly observed or significantly weak
KLAKLAK-KLAKLAK-VRRADNRPG (KLAKLAKKLAKLAKVRRADNRPG; KLAK(14D)-Z13 peptide) [Peptide A2-1],cytocidal activity (relative ATP amount %),A431-CNGB3-myc cells; 20 hours,hardly observed or significantly weak
same,cytocidal activity (relative ATP amount %),[2],hardly observed or significantly weak
KLAKLAK-KLAKLAK-HLAHLAH-HLAHLAH-VRRADNRPG (KLAKLAKKLAKLAKHLAHLAHHLAHLAHVRRADNRPG; D-residues) [WT],"cytocidal activity (luminescence intensity RLU, indicator of ATP amount)",A431-CNGB3-myc cells; [4],concentration-dependent cytocidal activity
same,"cytocidal activity, comparison between peptides",A431-CNGB3-myc cells; [4],stronger cytocidal activity than the peptide D5E
